Measured values taken from the supplement of paper PMC10331698.
± gives the standard deviation of the averaged measurements.

How the values were obtained:
Experiment in all cases: level (log10 ratio to DMSO vehicle control); higher = higher biomarker level / cell amount than vehicle control
[1] = compound: CCOC(=O)CC(=O)C(F)(F)C(F)(F)F [Ethyl pentafluoropropionyl acetate] (in DMSO)
Experimental: (§1)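 BioMAP Diversity Plus panel of 12 human primary cell co-culture systems (3C, 4H, LPS, SAg, BT, BF4T, BE3C, CASM3C, HDF3CGF, KF3CT, MyoF, Mphg). Compounds were added 1 h before stimulation and left for 24 h (MyoF 48 h; BT 72 h for soluble read-outs or 6 d for IgG). Biomarkers were read by ELISA, cytotoxicity by SRB, PBMC viability and proliferation by Alamar Blue. Each well value was divided by the mean of 8 DMSO control wells on the same plate and log10 transformed; duplicate blinded samples were tested at 4 concentrations.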

[2] = compound: NS(=O)(=O)C(F)(F)C(F)(F)C(F)(F)C(F)(F)C(F)(F)C(F)(F)C(F)(F)C(F)(F)F [Perfluorooctanesulfonamide] (in DMSO)
Experimental: as §1

[3] = compound: O=C(O)C(F)(F)OC(F)(F)C(F)(F)OC(F)(F)C(F)(F)OC(F)(F)C(F)(F)C(F)(F)C(F)(F)F [Perfluoro-3,6,9-trioxatridecanoic acid] (in DMSO); conditions: 6700 nM
Experimental: as §1

[4] = compound: O=C(O)C=C(C(F)(F)F)C(F)(F)F [3,3-Bis(trifluoromethyl)-2-propenoic acid] (in DMSO)
Experimental: as §1

[5] = compound: O=C(O)CCC(F)(C(F)(F)F)C(F)(F)F [4,4-bis(Trifluoromethyl)-4-fluoropropanoic acid] (in DMSO)
Experimental: as §1

[6] = compound: O=S(=O)(O)C(F)(F)C(F)(F)OC(F)(F)C(F)(F)F [Perfluoro(2-ethoxyethane)sulfonic acid] (in DMSO)
Experimental: as §1

[7] = compound: O=S(=O)(O)CCC(F)(F)C(F)(F)C(F)(F)C(F)(F)C(F)(F)C(F)(F)C(F)(F)C(F)(F)F [8:2 Fluorotelomer sulfonic acid] (in DMSO)
Experimental: as §1

Row | Test System | level (log10) ([1]; 6700 nM) | level (log10) ([1]; 20000 nM) | level (log10) ([1]; 60000 nM) | level (log10) ([2]; 6700 nM) | level (log10) ([2]; 20000 nM) | level (log10) [3] | level (log10) ([4]; 6700 nM) | level (log10) ([4]; 20000 nM) | level (log10) ([4]; 60000 nM) | level (log10) ([5]; 6700 nM) | level (log10) ([5]; 20000 nM) | level (log10) ([5]; 60000 nM) | level (log10) ([6]; 6700 nM) | level (log10) ([6]; 20000 nM) | level (log10) ([6]; 60000 nM) | level (log10) ([7]; 6700 nM) | level (log10) ([7]; 20000 nM) | level (log10) ([7]; 60000 nM)
1 | CASM3C:M-CSF | -0.0145 ± 0.00071 | -0.0175 ± 0.0064 | -0.0025 ± 0.028 | 0.022 | 0.04 ± 0.0099 | 0.0215 ± 0.013 | -0.0435 ± 0.0035 | -0.044 ± 0.02 | -0.068 ± 0.033 | -0.0145 ± 0.042 | 0.024 ± 0.048 | 0.0875 ± 0.056 | -0.0075 ± 0.011 | 0 ± 0.031 | 0.0615 ± 0.057 | 0.0005 ± 0.015 | -0.0115 ± 0.0021 | 0.037 ± 0.028
2 | CASM3C:PAI-I | 0.002 ± 0.0057 | 0.0055 ± 0.012 | 0.007 ± 0.0014 | 0.012 ± 0.0057 | 0.0055 ± 0.011 | 0.0015 ± 0.005 | -0.0115 ± 0.012 | -0.019 ± 0.0057 | -0.0145 ± 0.012 | 0.0075 ± 0.025 | 0.007 ± 0.013 | 0.0035 ± 0.0021 | 0.004 ± 0.0071 | 0.0015 ± 0.012 | 0.015 ± 0.011 | -0.0015 ± 0.019 | 0.012 ± 0.018 | 0.0095 ± 0.012
3 | CASM3C:Proliferation | -0.049 ± 0.04 | -0.014 ± 0.0085 | -0.0155 ± 0.00071 | -0.027 ± 0.0085 | 0.0415 ± 0.032 | -0.012 ± 0.016 | -0.0475 ± 0.0035 | -0.0555 ± 0.015 | -0.177 ± 0.06 | 0.002 ± 0.013 | -0.012 ± 0.0099 | -0.003 ± 0.023 | -0.0405 ± 0.052 | -0.0015 ± 0.018 | 0.048 ± 0.03 | 0.005 ± 0.072 | 0.0065 ± 0.022 | 0.0245 ± 0.023
4 | CASM3C:SRB | 0.0035 ± 0.0021 | 0.0015 ± 0.0035 | 0.002 ± 0.011 | 0.0075 ± 0.011 | -0.0075 ± 0.0021 | 0.0025 ± 0.00071 | 0.0145 ± 0.016 | -0.0075 ± 0.0021 | -0.027 | -0.007 ± 0.0014 | -0.0005 ± 0.0078 | -0.0025 ± 0.0035 | -0.002 ± 0.0028 | -0.003 ± 0.0028 | 0.001 ± 0.0071 | 0.0075 ± 0.005 | 0.0055 ± 0.005 | 0.0105 ± 0.0035
5 | CASM3C:Serum Amyloid A | 0.0005 ± 0.0035 | -0.012 ± 0.0014 | 0.0155 ± 0.029 | 0.0055 ± 0.028 | 0.012 ± 0.047 | -0.0305 ± 0.013 | -0.013 ± 0.021 | -0.0185 ± 0.0092 | -0.005 ± 0.038 | -0.008 ± 0.013 | 0.064 ± 0.059 | 0.159 ± 0.0057 | 0.029 ± 0.044 | 0.133 ± 0.18 | 0.344 ± 0.22 | 0.0195 ± 0.0064 | 0.0475 ± 0.025 | 0.096 ± 0.0042
6 | HDF3CGF:CCL2/MCP-1 | -0.022 ± 0.0042 | -0.0135 ± 0.005 | 0.009 ± 0.047 | -0.0105 ± 0.0064 | -0.567 ± 0.14 | -0.274 ± 0.013 | -0.0775 ± 0.052 | -0.0935 ± 0.056 | -0.084 ± 0.028 | -0.014 ± 0.016 | -0.01 ± 0.017 | 0.005 ± 0.0042 | 0.014 ± 0.0057 | 0.0175 ± 0.0078 | 0.035 ± 0.031 | 0.0005 ± 0.022 | -0.008 ± 0.03 | 0.0115 ± 0.022
7 | HDF3CGF:CD54/ICAM-1 | 0.006 ± 0.017 | 0.0055 ± 0.0092 | -0.012 ± 0.034 | -0.021 ± 0.0042 | -0.88 ± 0.26 | -0.076 ± 0.016 | 0.033 ± 0.035 | 0.032 ± 0.027 | 0.0555 ± 0.021 | 0.006 ± 0.0099 | -0.009 ± 0.041 | -0.0025 ± 0.005 | -0.0185 ± 0.0035 | -0.0205 ± 0.00071 | -0.012 ± 0.018 | -0.012 ± 0.017 | -0.04 ± 0.011 | -0.0805 ± 0.012
8 | HDF3CGF:CD106/VCAM-1 | 0.007 ± 0.011 | -0.0025 ± 0.005 | 0.006 ± 0.02 | -0.147 ± 0.027 | -0.364 ± 0.023 | -0.479 ± 0.037 | -0.0485 ± 0.021 | -0.0795 ± 0.005 | -0.17 ± 0.013 | -0.0525 ± 0.069 | -0.0555 ± 0.12 | -0.0835 ± 0.12 | -0.01 ± 0.05 | -0.0365 ± 0.09 | -0.016 ± 0.073 | 0.0015 ± 0.091 | 0.007 ± 0.073 | -0.072 ± 0.045
